In the supplement of paper PMC11061612:

How the values were obtained:
Assay in all cases: combination Emax (second highest fraction inhibited in the dose matrix, 72 h); higher = more inhibition; extreme values may be limits of the assay
[1] = test system: K-562 (Chronic Myelogenous Leukemia)
In short: (§1)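 Cell lines grown in DMEM/F12 or RPMI with 10% FBS were plated in 1536-well plates and held 24 hours at 37°C, 5% CO2 before 72 hours of exposure to two-drug dose matrices, with DMSO typically at 0.2%. CellTiter-Glo 2.0 luminescence gave viability, which was converted to inhibition. Vehicle wells were set to 0 and blank wells to 1. Combination Emax is the second-highest inhibition in the matrix, and Bliss excess is the observed combination effect minus the expected EA + EB − EA·EB, where EA and EB are the single-agent effects.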

LN-18 (Glioblastoma) = test system: LN-18 (Glioblastoma)
In short: as §1

[2] = test system: NCI-H847 (Small Cell Lung Carcinoma)
In short: as §1

[3] = test system: SW837 (Colorectal Carcinoma)
In short: as §1

TC-71 (Ewing's Sarcoma) = test system: TC-71 (Ewing's Sarcoma)
In short: as §1

[4] = test system: P12-ICHIKAWA (T-Lymphoblastic Leukemia)
In short: as §1

WIL2-NS (Non-Cancerous) = test system: WIL2-NS (Non-Cancerous)
In short: as §1

[5] = test system: GR-ST (B-Lymphoblastic Leukemia)
In short: as §1

[6] = test system: EVSA-T (Breast Carcinoma)
In short: as §1

[7] = test system: HDQ-P1 (Breast Carcinoma)
In short: as §1

WM-115 (Melanoma) = test system: WM-115 (Melanoma)
In short: as §1

[8] = test system: KYSE-180 (Esophageal Squamous Cell Carcinoma)
In short: as §1

ES8 (Ewing's Sarcoma) = test system: ES8 (Ewing's Sarcoma)
In short: as §1

MEL-JUSO (Melanoma) = test system: MEL-JUSO (Melanoma)
In short: as §1

ES1 (Ewing's Sarcoma) = test system: ES1 (Ewing's Sarcoma)
In short: as §1

[9] = test system: DiFi (Colorectal Carcinoma)
In short: as §1

NCI-H2818 (Mesothelioma) = test system: NCI-H2818 (Mesothelioma)
In short: as §1

[10] = test system: MKN28 (Gastric Carcinoma)
In short: as §1

[11] = test system: TE-6 (Esophageal Squamous Cell Carcinoma)
In short: as §1

U251 (Low Grade Glioma) = test system: U251 (Low Grade Glioma)
In short: as §1

Row | SMILES | combination Emax [1] | combination Emax (LN-18 (Glioblastoma)) | combination Emax [2] | combination Emax [3] | combination Emax (TC-71 (Ewing's Sarcoma)) | combination Emax [4] | combination Emax (WIL2-NS (Non-Cancerous)) | combination Emax [5] | combination Emax [6] | combination Emax [7] | combination Emax (WM-115 (Melanoma)) | combination Emax [8] | combination Emax (ES8 (Ewing's Sarcoma)) | combination Emax (MEL-JUSO (Melanoma)) | combination Emax (ES1 (Ewing's Sarcoma)) | combination Emax [9] | combination Emax (NCI-H2818 (Mesothelioma)) | combination Emax [10] | combination Emax [11] | combination Emax (U251 (Low Grade Glioma))
1 | CC1(C)CCC(CN2CCN(c3ccc(C(=O)NS(=O)(=O)c4ccc(NCC5CCOCC5)c([N+](=O)[O-])c4)c(Oc4cnc5[nH]ccc5c4)c3)CC2)=C(c2ccc(Cl)cc2)C1 [Venetoclax] + C=CCn1c(=O)c2cnc(Nc3ccc(N4CCN(C)CC4)cc3)nc2n1-c1cccc(C(C)(C)O)n1 [AZD1775] (first compound max 1 µM, partner max 1 µM) | 0.892 | 0.555 | 0.992 | 0.453 | 0.424 | 0.966 | 0.99 | 0.813 | 0.329 | 0.532 | 0.27 | 0.739 | 0.94 | 0.521 | 0.946 | 0.674 | 0.331 | 0.501 | 0.497 | 0.297
2 | CC1(C)CCC(CN2CCN(c3ccc(C(=O)NS(=O)(=O)c4ccc(NCC5CCOCC5)c([N+](=O)[O-])c4)c(Oc4cnc5[nH]ccc5c4)c3)CC2)=C(c2ccc(Cl)cc2)C1 [Venetoclax] + CCN(CCO)CCCOc1ccc2c(Nc3cc(CC(=O)Nc4cccc(F)c4)[nH]n3)ncnc2c1 [AZD2811] (first compound max 1 µM, 7x7, partner max 1 µM) | 0.393 | 0.488 | 1 | 0.2 | 0.88 | 1 | 0.857 | 0.648 | 0.427 | 0.172 | 0.211 | 0.233 | 1 | 0.287 | 0.759 | 0.486 | 0.251 | 0.221 | 0.26 | 0.274
3 | CC1(C)CCC(CN2CCN(c3ccc(C(=O)NS(=O)(=O)c4ccc(NCC5CCOCC5)c([N+](=O)[O-])c4)c(Oc4cnc5[nH]ccc5c4)c3)CC2)=C(c2ccc(Cl)cc2)C1 [Venetoclax] + CN(C)CCCOc1ccc(-c2ccc3ncc4c(c3c2)n(C2CCOCC2)c(=O)n4C)cn1 [AZD0156] (first compound max 1 µM, 7x7, partner max 1 µM) | 0.374 | 0.329 | 0.378 | 0.145 | 0.294 | 0.224 | 0.804 | 0.704 | 0.213 | 0.139 | 0.179 | 0.155 | 0.869 | 0.233 | 0.82 | 0.288 | 0.284 | 0.26 | 0.289 | 0.227
4 | CC1(C)CCC(CN2CCN(c3ccc(C(=O)NS(=O)(=O)c4ccc(NCC5CCOCC5)c([N+](=O)[O-])c4)c(Oc4cnc5[nH]ccc5c4)c3)CC2)=C(c2ccc(Cl)cc2)C1 [Venetoclax] + COc1cc(Nc2ncc3c(n2)-c2ccc(Cl)cc2C(c2c(F)cccc2OC)=NC3)ccc1C(=O)O [Alisertib] (first compound max 1 µM, 7x7, partner max 10 µM) | 0.693 | 0.787 | 1 | 0.308 | 0.855 | 0.953 | 0.825 | 0.631 | 0.598 | 0.41 | 0.379 | 0.377 | 0.962 | 0.301 | 0.842 | 0.559 | 0.36 | 0.245 | 0.527 | 0.49
5 | CC1(C)CCC(CN2CCN(c3ccc(C(=O)NS(=O)(=O)c4ccc(NCC5CCOCC5)c([N+](=O)[O-])c4)c(Oc4cnc5[nH]ccc5c4)c3)CC2)=C(c2ccc(Cl)cc2)C1 [Venetoclax] + C[C@@H]1COCCN1C2=NC(=NC(=C2)C3(CC3)[S@](=N)(=O)C)C4=C5C=CNC5=NC=C4 [AZD6738] (first compound max 1 µM, 7x7, partner max 10 µM) | 0.788 | 0.745 | 0.999 | 0.348 | 0.954 | 0.986 | 0.997 | 0.762 | 0.378 | 0.399 | 0.524 | 0.638 | 0.934 | 0.483 | 0.942 | 0.81 | 0.394 | 0.488 | 0.67 | 0.518
6 | CC1(C)CCC(CN2CCN(c3ccc(C(=O)NS(=O)(=O)c4ccc(NCC5CCOCC5)c([N+](=O)[O-])c4)c(Oc4cnc5[nH]ccc5c4)c3)CC2)=C(c2ccc(Cl)cc2)C1 [Venetoclax] + C[C@@H](Nc1cc(F)cc(F)c1)c1cc(C(=O)N(C)C)cc2c(=O)cc(N3CCOCC3)oc12 [AZD8186] (first compound max 1 µM, 7x7, partner max 3 µM) | 0.347 | 0.378 | 0.844 | 0.0406 | 0.147 | 0.0737 | 0.772 | 0.633 | 0.79 | 0.211 | 0.447 | 0.107 | 0.834 | 0.0937 | 0.395 | 0.178 | 0.129 | 0.115 | 0.289 | 0.0464
7 | CC1(C)CCC(CN2CCN(c3ccc(C(=O)NS(=O)(=O)c4ccc(NCC5CCOCC5)c([N+](=O)[O-])c4)c(Oc4cnc5[nH]ccc5c4)c3)CC2)=C(c2ccc(Cl)cc2)C1 [Venetoclax] + Cc1cc2ncnn2cc1Nc1ncc2c(n1)n(C1CCOCC1)c(=O)n2C [AZD7648] (first compound max 1 µM, 7x7, partner max 10 µM) | 0.339 | 0.378 | 0.735 | 0.102 | 0.262 | 0.298 | 0.77 | 0.679 | 0.305 | 0.189 | 0.238 | 0.142 | 0.427 | 0.183 | 0.46 | 0.246 | 0.352 | 0.229 | 0.432 | 0.202
8 | CC1(C)CCC(CN2CCN(c3ccc(C(=O)NS(=O)(=O)c4ccc(NCC5CCOCC5)c([N+](=O)[O-])c4)c(Oc4cnc5[nH]ccc5c4)c3)CC2)=C(c2ccc(Cl)cc2)C1 [Venetoclax] + Cn1cnc2c(F)c(Nc3ccc(Br)cc3Cl)c(C(=O)NOCCO)cc21 [Selumetinib] (first compound max 1 µM, 7x7, partner max 3 µM) | 0.414 | 0.17 | 0.168 | 0.297 | 0.291 | 0.23 | 0.87 | 0.481 | 0.182 | 0.182 | 0.42 | 0.0548 | 0.195 | 0.305 | 0.338 | 0.351 | 0.133 | 0.278 | 0.319 | 0.137
